Measurements from paper PMC8330742, “New benzothieno[2,3-c]pyridines as non-steroidal CYP17 inhibitors: design, synthesis, anticancer screening, apoptosis induction, and in silico ADME profile studies” (Journal of Enzyme Inhibition and Medicinal Chemistry, 2021).

Assays:
UACC-257 = assay: NCI-60 SRB screen; type: cell-based, human; settings: UACC-257;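 as to IC50: half-maximal inhibitory concentration read as cell viability unlike GI50 net growth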
EKVX = assay: NCI-60 SRB screen; type: cell-based, human;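 as to IC50: half-maximal inhibitory concentration read as cell viability unlike GI50 net growth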
COLO 205 = assay: NCI-60 SRB screen; type: cell-based, human; settings: COLO 205;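 as to IC50: half-maximal inhibitory concentration read as cell viability unlike GI50 net growth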
[1] = tested on: panel of 60 cancer cell lines; assay: NCI-60 SRB screen, mean or range over the panel; type: cell-based, human; settings: Homo sapiens
SF-268 = assay: NCI-60 SRB screen; type: cell-based, human; settings: SF-268;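 as to IC50: half-maximal inhibitory concentration read as cell viability unlike GI50 net growth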
OVCAR-3 = assay: NCI-60 SRB screen; type: cell-based, human; settings: OVCAR-3
M14 = assay: NCI-60 SRB screen; type: cell-based, human; settings: M14
SW-620 = assay: NCI-60 SRB screen; type: cell-based; settings: SW-620
OVCAR-4 = assay: NCI-60 SRB screen; type: cell-based, human; settings: OVCAR-4
NCI-H460 = assay: NCI-60 SRB screen; type: cell-based, human; settings: NCI-H460
CAKI-1 = assay: NCI-60 SRB screen; type: cell-based, human; settings: CAKI-1
MDA-MB-435 = assay: NCI-60 SRB screen; type: cell-based
UACC-62 = assay: NCI-60 SRB screen; type: cell-based, human; settings: UACC-62
NCI-H23 = assay: NCI-60 SRB screen; type: cell-based, human; settings: NCI-H23
SK-MEL-2 = assay: NCI-60 SRB screen; type: cell-based, human; settings: SK-MEL-2
NCI-H226 = assay: NCI-60 SRB screen; type: cell-based, human; settings: NCI-H226
IGROV1 = assay: NCI-60 SRB screen; type: cell-based, human; settings: IGROV1
NCI/ADR-RES = assay: NCI-60 SRB screen; type: cell-based, human
NCI-H522 = assay: NCI-60 SRB screen; type: cell-based, human; settings: NCI-H522
HCT-15 = assay: NCI-60 SRB screen; type: cell-based, human; settings: HCT-15
HOP-62 = assay: NCI-60 SRB screen; type: cell-based, human; settings: HOP-62
OVCAR-8 = assay: NCI-60 SRB screen; type: cell-based, human; settings: OVCAR-8
HCC-2998 = assay: NCI-60 SRB screen; type: cell-based, human; settings: HCC-2998, five dose
[2] = Homo sapiens, single dose 10^−5 M, read-out: Growth inhibition (%)
[3] = Homo sapiens, IGROV-1, five dose

## N#CC1C(=O)NC(c2ccccc2[N+](=O)[O-])c2sc3c(F)cccc3c21 (stereo not shown) [Compound 5c, 4-Cyano-8-fluoro-1-(2-nitrophenyl)-1,2-dihydro[1]benzothieno[2,3-c] pyridin-3(4H)-one]
UACC-257; Homo sapiens, UACC-275 (so in the source), single dose 10^−5 M, read-out: Growth inhibition (%)
  inhibition at 10 µM: 137%
UACC-257; Homo sapiens, five dose
  GI50: 1.73 µM
  IC50: 5.89 µM
UACC-257; five dose
  TGI: 100 µM
EKVX; Homo sapiens, five dose
  GI50: 2.69 µM
  IC50: 13.8 µM
EKVX; [2]
  inhibition at 10 µM: 35.3%
EKVX; five dose
  TGI: 100 µM
COLO 205; five dose
  TGI: 100 µM
COLO 205; Homo sapiens, five dose
  GI50: 10.3 µM
  IC50: 17.8 µM
COLO 205; [2]
  inhibition at 10 µM: 29.9%
[1]; mean graph midpoint over all tested cell lines, five dose, read-out: MG-MID GI50
  GI50: 0.21 µM
[1]; mean over the cell lines, single dose 10^−5 M, read-out: Mean growth inhibition (%)
  inhibition at 10 µM: 46.9%
SF-268; Homo sapiens, five dose
  GI50: 16.4 µM
  IC50: 46.8 µM
SF-268; [2]
  inhibition at 10 µM: 14.4%
SF-268; five dose
  TGI: 100 µM
OVCAR-3; Homo sapiens, five dose
  GI50: 0.32 µM
  IC50: 0.676 µM
OVCAR-3; [2]
  inhibition at 10 µM: 114%
OVCAR-3; five dose
  TGI: 87.80 µM
M14; Homo sapiens, five dose
  GI50: 16.3 µM
  IC50: 28.2 µM
M14; [2]
  inhibition at 10 µM: 7.3%
M14; five dose
  TGI: 100 µM
SW-620; Homo sapiens, five dose
  GI50: 0.37 µM
  IC50: 0.676 µM
  LC50 (50% lethal concentration): > 100 µM
SW-620; [2]
  inhibition at 10 µM: 88.1%
SW-620; five dose
  TGI: 100 µM
OVCAR-4; Homo sapiens, five dose
  GI50: 1.61 µM
  IC50: 24.5 µM
OVCAR-4; [2]
  inhibition at 10 µM: 100%
OVCAR-4; five dose
  TGI: 100 µM
NCI-H460; Homo sapiens, five dose
  GI50: 0.29 µM
  IC50: 0.372 µM
NCI-H460; [2]
  inhibition at 10 µM: 11.5%
NCI-H460; five dose
  TGI: 100 µM
CAKI-1; five dose
  TGI: 100 µM
CAKI-1; Homo sapiens, five dose
  GI50: 0.17 µM
  IC50: 0.562 µM
CAKI-1; [2]
  inhibition at 10 µM: 94.7%
MDA-MB-435; Homo sapiens, MDA-MB-435
  GI50: 27.2 µM
  IC50: 38 µM
MDA-MB-435; Homo sapiens, MDA-MB-435, read-out: Growth inhibition (%)
  inhibition at 10 µM: -1.7%
MDA-MB-435; Homo sapiens, MDA-MB-435, five dose
  LC50 (50% lethal concentration): > 100 µM
MDA-MB-435; MDA-MB-435, five dose
  TGI: 100 µM
UACC-62; Homo sapiens, five dose
  GI50: 0.36 µM
  IC50: 1.78 µM
UACC-62; [2]
  inhibition at 10 µM: 90.6%
UACC-62; five dose
  TGI: 47.20 µM
NCI-H23; Homo sapiens, five dose
  GI50: 7.33 µM
  IC50: 19.5 µM
NCI-H23; [2]
  inhibition at 10 µM: 32.9%
NCI-H23; five dose
  TGI: 100 µM
SK-MEL-2; Homo sapiens, five dose
  GI50: 12.7 µM
  IC50: 33.9 µM
SK-MEL-2; [2]
  inhibition at 10 µM: 7.4%
SK-MEL-2; five dose
  TGI: 100 µM
NCI-H226; Homo sapiens, five dose
  GI50: 0.27 µM
  IC50: 0.871 µM
NCI-H226; [2]
  inhibition at 10 µM: 31.2%
NCI-H226; five dose
  TGI: 100 µM
IGROV1; [3]
  GI50: 0.004 µM
  IC50: 0.178 µM
IGROV1; Homo sapiens, IGROV-1, single dose 10^−5 M, read-out: Growth inhibition (%)
  inhibition at 10 µM: 99.7%
IGROV1; five dose
  TGI: 100 µM
NCI/ADR-RES; Homo sapiens, five dose
  GI50: 8.21 µM
  IC50: 16.6 µM
NCI/ADR-RES; [2]
  inhibition at 10 µM: 31.5%
NCI/ADR-RES; five dose
  TGI: 100 µM
NCI-H522; Homo sapiens, five dose
  GI50: 18.4 µM
  IC50: 41.7 µM
NCI-H522; [2]
  inhibition at 10 µM: 17.3%
NCI-H522; five dose
  TGI: 100 µM
HCT-15; five dose
  TGI: 100 µM
HCT-15; Homo sapiens, five dose
  GI50: 11.4 µM
  IC50: 16.6 µM
HCT-15; [2]
  inhibition at 10 µM: 12.3%
HOP-62; five dose
  TGI: 100 µM
HOP-62; Homo sapiens, five dose
  GI50: 10 µM
  IC50: 22.9 µM
HOP-62; [2]
  inhibition at 10 µM: 66.3%
OVCAR-8; Homo sapiens, five dose
  GI50: 12 µM
  IC50: 20.4 µM
OVCAR-8; [2]
  inhibition at 10 µM: 25.1%
OVCAR-8; five dose
  TGI: 100 µM
HCC-2998
  TGI: 94.90 µM
HCC-2998; Homo sapiens
  GI50: 17.4 µM
  IC50: 33.9 µM
